These results are taken from paper PMC10979478, “Deciphering the Biosynthesis and Physiological Function of 5-Methylated Pyrazinones Produced by Myxobacteria” (ACS Central Science, 2024).

Structures are written as SMILES. Residues, ends and D or L forms follow the SMILES beside them. *: point of attachment. Boc = CC(C)(C)OC(=O)*

Data set [1] in a line: Cytotoxic activity on human cell lines. As to conditions: PC3 prostatic carcinoma cells, mean value of three replicates. Type of data set: cell-based.
Data set [2] is described as follows: Cytotoxic activity on human cell lines. Type of data set: cell-based. The note with it: A549 lung carcinoma cells, mean value of three replicates.
Data set [3] is described as follows: Cytotoxic activity on human cell lines. Type of data set: cell-based. As to conditions: HepG2 hepatocarcinoma cells, mean value of three replicates.
Data set [4] relates to Acinetobacter baumannii. Nature of the data set: Antibacterial assay, agar diffusion method. Type of data set: cell-based. As to conditions: 50 μg/disc. The method, then: (§1) The white needle crystals of 2 were obtained from MeOH solvent by slowly volatilizing in a glass vial under ambient condition. The X-ray diffraction measurement of crystals basically followed our previously published method.1 The crystallographic data for 2 was summarized […]6, and deposited in CCDC database under the access number 2278050. Antibacterial Assay. The antibacterial assay was performed by agar diffusion method.2 Single colony of Gram-positive bacteria Staphylococcus aureus, Gram-negative bacterium Acinetobacter baumannii, and fungus Candida albicans were picked and inoculated into 8 mL of LB liquid medium for overnight growth at 37 °C, respectively. Next day, the cultures were 100-fold diluted to 1x10^7 CFU/mL with fresh LB liquid medium, to grow at 37 °C until OD600 0.4~0.6. Compounds 1 and 2 were dissolved […] The disks were then placed onto an agar plate containing a soft agar overlay with the indicator microorganisms. Kanamycin (for S. aureus) and apramycin (for C. albicans and E. coli) at a concentration of 1 mg/mL were used as positive controls, and the solvent methanol as the negative control. […] Protease inhibition assay. […] MES, 5 mM DTT, pH 5.5) was detected by proteolysis of fluorescent substrate z-FR-AMC. Enzyme was pre- incubated with a gradient concentration (0~500 μM) of compounds for 60 min at 37 °C in a black 96-well plate. Then, 20 μM of z-FR-AMC was added to each well to make up 200 μ[…] , and the reaction continued for another 30 min. The absorbance was measured by microplate reader (Spectra max GEMINI XPS, excitation wavelength 380 nm, emission wavelength 460 nm). The protease inhibitor E-64 was used as positive control and DMSO was the negative control. All the experiments were completed in triplicate. Enzymatic cleavage of 1 and 1b' using CorB. The reaction was conducted in a 50 μL system comprising of 20 mM Tris-HCl buffer (pH 7.5), 150 mM NaCl, 0.22 mM CorB, and 0.05 mg 1, or 1b' (dissolved in DMSO) respectively. Tris-HCl buffer was used as a negative control, and all experiments were repeated in triplicates. The reactions were incubated at 37 °C for 12 hours and then terminated by adding 50 μL of MeOH. The mixture was centrifuged at 12000 rpm for 20 minutes, and the supernatant was subsequently analyzed HPLC-DAD. MST assay. The purified CorB was mixed with an equal volume of RED-tris-NTA dye solution and incubated in the dark for 30 min, centrifuged at 12000 rpm, 4 °C for 10 min. Then, 10 μL of the CorB-dye complex was mixed with an equal volume of test compound solution ranging from 15.2 μM to 0.5 mM. The resulting samples were collected by capillary tubes and analyzed by Microscale Thermophoresis (Monolith NT.115). 4
In general terms: In agar diffusion tests the substance spreads into inoculated agar from a disc or well.

Data set [5] has as its system Staphylococcus aureus. Nature of the data set: Antibacterial assay, agar diffusion method. The format is cell-based. As to conditions: 50 μg/disc. The method, then: as §1
The nature of data set [6]: Cytotoxic activity on human cell lines. The format is cell-based. The note with it: KYSE410 esophageal squamous carcinoma cells, mean value of three replicates.
For data set [7], the system named is Candida albicans. Nature of the data set: Agar diffusion assay against fungus. The format is cell-based. The note with it: 50 μg/disc. The method, then: (§2) The white needle crystals of 2 were obtained from MeOH solvent by slowly volatilizing in a glass vial under ambient condition. The X-ray diffraction measurement of crystals basically followed our previously published method.1 The crystallographic data for 2 was summarized […]6, and deposited in CCDC database under the access number 2278050. Antibacterial Assay. The antibacterial assay was performed by agar diffusion method.2 Single colony of Gram-positive bacteria Staphylococcus aureus, Gram-negative bacterium Acinetobacter baumannii, and fungus Candida albicans were picked and inoculated into 8 mL of LB liquid medium for overnight growth at 37 °C, respectively. Next day, the cultures were 100-fold diluted to 1x10^7 CFU/mL with fresh LB liquid medium, to grow at 37 °C until OD600 0.4~0.6. Compounds 1 and 2 were dissolved […] The disks were then placed onto an agar plate containing a soft agar overlay with the indicator microorganisms. […] MES, 5 mM DTT, pH 5.5) was detected by proteolysis of fluorescent substrate z-FR-AMC. […] The absorbance was measured by microplate reader (Spectra max GEMINI XPS, excitation wavelength 380 nm, emission wavelength 460 nm). […] The mixture was centrifuged at 12000 rpm for 20 minutes, and the supernatant was subsequently analyzed HPLC-DAD. […] The resulting samples were collected by capillary tubes and analyzed by Microscale Thermophoresis (Monolith NT.115). […]

In data set [8] the test system is four human cell lines. Nature of the data set: Antiproliferative activity, summary statement. The note with it: four human cell lines (Table S2). The format is cell-based.
The target of data set [9] is cathepsin L (Homo sapiens, UniProt P07711). Nature of the data set: Protease inhibition assay (z-FR-AMC proteolysis). The format is biochemical. As to conditions: compounds 0~500 μM, pre-incubated 60 min at 37 °C, pH 5.5; read-out: inhibition activity against protease cathepsin L, IC50. The method, then: as §2
Data set [10] has as its system DK1622-corB. The experiment in a line: Agglutination assay of corB-overexpression mutant. The note with it: for agglutination induced by exogenous addition, in corB-overexpressing strain: 5 mg/L; for threshold concentration causing visible flocculation of DK1622-corB relative to DK1622-wt: 1 or 1b′ (Figures S12–S14). Type of data set: cell-based, Myxococcus xanthus. The method, then: (§3) The agglutination assay basically followed the method described by Velicer.[62] Briefly, DK1622 strains were cultured in CTT medium, whereas SDU70 strains were cultured in VY/2 medium. The aggregation-inducing compounds were added together with the initial inocula. After 3 days of growth, ∼2 mL of liquid cultures (in logarithmic growth stage) were transferred into cuvettes. Samples were left static for 15 min to visualize the clumping phenomenon. To plot the agglutination curves, the absorbance readings (600 nm) were measured on a UV-8000 spectrophotometer at differential intervals within 4 h. Decreasing the absorbance represents the settling of agglutinated cell clumps. Data points are the means of three replicates per strain.

Data set [11] relates to DK1622-wt. The experiment in a line: Trypan blue binding assay of EPS production. The format is cell-based, Myxococcus xanthus. As to conditions: DK1622-wt supplemented with 5 mg/L. The method, then:
Exopolysaccharide (EPS) production was measured according to the method published by Black et al.[64] Briefly, wild type and mutant strains of DK1622 were inoculated in liquid CTT medium and incubated for 24 h at 30 °C and 200 rpm. The cells grown to the logarithmic phase were collected by centrifugation, and the supernatants were discarded. Cells were resuspended and adjusted to a density of 5 × 10^8 CFU/mL with TPM buffer (1.97 g/L MgSO4·7H2O, 1 M Tris-HCl, 10 mL 0.1 M PBS, pH 7.6). Next, the cell suspension was evenly mixed with an equal volume of Trypan Blue dye solution (150 μg/mL), and TPM buffer was used as a blank control. The supernatant was centrifuged at 12000 rpm for 5 min, and 200 μL was used for the absorbance measurement at 585 nm. Each experiment was performed in triplicate.

In data set [12] the test system is DK1622-wt. Nature of the data set: Agglutination assay in liquid culture. The format is cell-based, Myxococcus xanthus. As to conditions: for dose dependence of flocculation/agglutination: 1~50 mg/L; for ability to induce agglutination (SAR): each compound added at 5 mg/L. The method, then:
as §3

In data set [13] the test system is SDU70-ΔcorA-corB. The experiment in a line: Agglutination assay of corB-overexpression mutant. Type of data set: cell-based, Corallococcus exiguus. As to conditions: for morphology on induction: 5 mg/L; for clumping: as high as 50 mg/L. The method, then: as §3
For data set [14], the system named is SDU70-corB. Nature of the data set: Agglutination assay of corB-overexpression mutant. Type of data set: cell-based, Corallococcus exiguus. The note with it: as high as 50 mg/L. The method, then:
as §3

For data set [15], the system named is SDU70-ΔcorA. Nature of the data set: Agglutination assay in liquid culture. The format is cell-based, Corallococcus exiguus. As to conditions: for dose dependence of flocculation/agglutination: 1~50 mg/L; for ability to induce agglutination (SAR): each compound added at 5 mg/L. The method, then:
as §3

The test system of data set [16] is DK1622. The experiment in a line: Confocal laser scanning microscopy of cells and EPS. The format is cell-based, Myxococcus xanthus. As to conditions: DK1622+1. The method, then: The microscopic observation of SDU70 and DK1622 basically followed our recently published methods.[63]Scanning electron microscopy (SEM): DK1622 and SDU70 strains (wild type and mutants) were grown to logarithmic stage. The cells were washed three times with 1× PBS buffer and then fixed overnight at 4 °C in 2.5% glutaraldehyde solution. Samples were prepared using the standard ethanol dehydration method,[62] and observed by QUANTA FEG250 scanning electron microscope (Thermo Fisher Scientific, USA). Confocal laser scanning microscopy (CLSM): DK1622 strains were grown in CTT liquid medium for 24 h, while SDU70 strains were grown in VY/2 medium for 72 h. The presence of EPS, eDNA dead cells, and alive cells were labeled with Alexa 350-labeled wheat germ lectin (WGA), SYTOX Orange, and STYO 9, respectively. The images were taken on LSM 900 CLSM (Zeiss, Germany), using 63× oil immersed objective lens. The CLSM images were captured by ZEN software (Zeiss, Germany) and exported by using ImageJ software.

Data set [17] has as its system CorB. The experiment in a line: MST assay of CorB to coralinone A. Type of data set: binding, Corallococcus exiguus SDU70. The note with it: 15.2 μM to 0.5 mM test compound. The method, then: as §2

cathepsin L, sequence (P07711 114-333, species assumed): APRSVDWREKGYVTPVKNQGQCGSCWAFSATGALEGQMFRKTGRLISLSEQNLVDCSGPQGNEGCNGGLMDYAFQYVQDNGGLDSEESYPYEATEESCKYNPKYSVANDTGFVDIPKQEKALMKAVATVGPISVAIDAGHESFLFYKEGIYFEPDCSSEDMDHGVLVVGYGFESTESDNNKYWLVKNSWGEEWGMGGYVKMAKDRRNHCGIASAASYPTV

Consider `CC[C@H](C)c1[nH]c(=O)c(CC(C)C)nc1C` [compound 2, coralinone B], for which the IC50 (as a rule, the concentration that gives 50% inhibition) came to 432 µM in data set [1], 145 µM in data set [2], 504 µM in data set [3] and 312 µM in [6]. In addition, the growth inhibition entry in data set [4], in data set [5] and in data set [7] was “No growth inhibition” throughout. Further, the antiproliferative activities result in data set [8] is on record as “Neither 1 nor 2 showed any significant antiproliferative activities”.

Turning to `CC(=O)O[C@@]12CO[C@@H]1C[C@H](O)[C@@]1(C)C(=O)[C@H](O)C3=C(C)[C@@H](OC(=O)[C@H](O)[C@@H](NC(=O)OC(C)(C)C)c4ccccc4)C[C@@](O)([C@@H](OC(=O)c4ccccc4)[C@H]21)C3(C)C` [Docetaxel, reference compound], the IC50 in [1] is 71.9 µM; in data set [2], 33.1 µM; in data set [3] it was 10.3 µM; in data set [6], 17.8 µM.

On to `CC(C)C[C@H](NC(=O)OC(C)(C)C)C(=O)N[C@H](C=O)C(C)C` [10b′] (Boc-Leu-Val-aldehyde), for which, in [9], the IC50 came to 0.23 µM.

In the case of `Cc1nc(CC(C)C)c(=O)[nH]c1C(C)C` [compound 1, coralinone A], in data set [10], the “agglutination induced by exogenous addition, in corB-overexpressing strain” value is reported as “substantially abated agglutination”. Besides, the “threshold concentration causing visible flocculation of DK1622-corB relative to DK1622-wt” value in data set [10] is on record as 3–4 times. For the same molecule, the IC50 in data set [1] is 796 µM; in [2], 383 µM; in data set [3] it was 892 µM; in [6] it was 463 µM. Moreover, in data set [11], the EPS production result is given as “cumulation of EPS”. The growth inhibition result in [4], in data set [5] and in data set [7] was “No growth inhibition” each time. The “flocculation at 5 mg/L in dose series” value in data set [12] (5 mg/L) and in data set [15] (5 mg/L) was “severe flocculation” throughout. Also, the “flocculation on exogenous supplementation” value in [12] (5 mg/L, liquid culture) is “led to flocculation”. Besides, the “dose dependence of flocculation/agglutination” value in data set [12] and in data set [15] was “dose-dependent manner” in each case. The “concentration that started to be active in causing flocculation” value in data set [12] (dose series 1~50 mg/L) and in [15] (dose series 1~50 mg/L) was 2 mg/L throughout. Moreover, the “ability to induce agglutination (SAR)” value in data set [12] and in data set [15] was “effective” in each case. In data set [13], the morphology on induction entry is on record as “maintained the dispersed morphology”. The clumping result in [13] and in [14] was “did not clump” in each case. In data set [15] (5 mg/L, shaken liquid culture), the “restoration of pellet morphogenesis by chemical complementation” value is recorded as “restored”. For the same molecule, in [16], the “EPS production (Alexa 350-WGA blue signal in Merge photos)” value is “higher production of EPS”. For the same molecule, the “binding to CorB (MST)” value in data set [17] is on record as “did not disturb CorB-dye binding”. For the same molecule, the antiproliferative activities result in data set [8] is “Neither 1 nor 2 showed any significant antiproliferative activities”.

In the case of `CC(=O)[C@@H](NC(=O)[C@H](CC(C)C)NC(=O)OC(C)(C)C)C(C)C` [1b′], in data set [10], the “agglutination induced by exogenous addition, in corB-overexpressing strain” value is reported as “substantially abated agglutination” and the “threshold concentration causing visible flocculation of DK1622-corB relative to DK1622-wt” value is given as 3–4 times. In data set [12], the “dose dependence of flocculation/agglutination” value was “dose-dependent manner” and the “ability to induce agglutination (SAR)” value is given as “effective”. In [13], the morphology on induction entry is “maintained the dispersed morphology” and the clumping result was “did not clump”. In addition, the clumping entry in data set [14] was “did not clump”. In addition, in [15], the “dose dependence of flocculation/agglutination” value was “dose-dependent manner” and the “ability to induce agglutination (SAR)” value was “effective”.
